Test results taken from the NIST ThermoML archive (doi:10.1021/acs.jced.7b00002).

Assay: xn = mol fraction of the nth substance listed
Conditions: 97.6 kPa, Liquid; for viscosity: Capillary tube (Ostwald / Ubbelohde) method; for mass density: Vibrating tube method

CCCCCCCC[n+]1ccn(C)c1.[Cl-] [1-methyl-3-octylimidazolium chloride] + c1ccncc1
Conditions	mass density [kg/m3]	viscosity [mPa·s]
303.15 K, x1 = 0.128	988.9	3.46
303.15 K, x1 = 0.255	998.25	12.71
303.15 K, x1 = 0.339	1000.33	29.41
303.15 K, x1 = 0.445	1002.78	84.05
303.15 K, x1 = 0.578	1004.43	290.77
303.15 K, x1 = 0.755	1005.83	863.91
303.15 K, x1 = 0.865	1005.51	2828.1
303.15 K, x1 = 1	1006.2	7339.7
308.15 K, x1 = 0.128	984.71	3.11
308.15 K, x1 = 0.255	994.55	10.87
308.15 K, x1 = 0.339	996.84	24.13
308.15 K, x1 = 0.445	999.45	65.58
308.15 K, x1 = 0.578	1001.29	215.57
308.15 K, x1 = 0.755	1002.79	599.38
308.15 K, x1 = 0.865	1002.58	1823.5
308.15 K, x1 = 1	1003.33	4272.9
313.15 K, x1 = 0.128	980.51	2.81
313.15 K, x1 = 0.255	990.84	9.39
313.15 K, x1 = 0.339	993.34	20.12
313.15 K, x1 = 0.445	996.14	51.96
313.15 K, x1 = 0.578	998.15	161.31
313.15 K, x1 = 0.755	999.79	426
313.15 K, x1 = 0.865	999.66	1210.7
313.15 K, x1 = 1	1000.48	2766.9
318.15 K, x1 = 0.128	976.31	2.56
318.15 K, x1 = 0.255	987.14	8.17
318.15 K, x1 = 0.339	989.85	16.97
318.15 K, x1 = 0.445	992.85	42.02
318.15 K, x1 = 0.578	995.01	123.18
318.15 K, x1 = 0.755	996.82	309.61
318.15 K, x1 = 0.865	996.75	829.67
318.15 K, x1 = 1	997.64	1788.6
323.15 K, x1 = 0.128	972.1	2.34
323.15 K, x1 = 0.255	983.45	7.17
323.15 K, x1 = 0.339	986.38	14.49
323.15 K, x1 = 0.445	989.57	34.4
323.15 K, x1 = 0.578	991.88	96.06
323.15 K, x1 = 0.755	993.86	230.68
323.15 K, x1 = 0.865	993.8	583.82
323.15 K, x1 = 1	994.82	1198.7
328.15 K, x1 = 0.128	967.86	2.15
328.15 K, x1 = 0.255	979.75	6.34
328.15 K, x1 = 0.339	982.9	12.56
328.15 K, x1 = 0.445	986.28	28.53
328.15 K, x1 = 0.578	988.75	75.98
328.15 K, x1 = 0.755	990.9	174.4
328.15 K, x1 = 0.865	990.92	419.77
328.15 K, x1 = 1	992	828.3
333.15 K, x1 = 0.128	963.58	1.98
333.15 K, x1 = 0.255	976.06	5.65
333.15 K, x1 = 0.339	979.42	10.81
333.15 K, x1 = 0.445	983	23.98
333.15 K, x1 = 0.578	985.64	61.06
333.15 K, x1 = 0.755	987.95	134.84
333.15 K, x1 = 0.865	988.06	309.69
333.15 K, x1 = 1	989.17	588.69
338.15 K, x1 = 0.128	959.29	1.83
338.15 K, x1 = 0.255	972.37	5.06
338.15 K, x1 = 0.339	975.93	9.51
338.15 K, x1 = 0.445	979.67	20.37
338.15 K, x1 = 0.578	982.53	49.81
338.15 K, x1 = 0.755	984.99	–
338.15 K, x1 = 0.865	985.22	233.02
338.15 K, x1 = 1	986.38	426.28
343.15 K, x1 = 0.128	955.03	1.7
343.15 K, x1 = 0.255	968.68	4.56
343.15 K, x1 = 0.339	972.4	8.37
343.15 K, x1 = 0.445	976.42	17.42
343.15 K, x1 = 0.578	979.44	41.06
343.15 K, x1 = 0.755	982.04	84.08
343.15 K, x1 = 0.865	982.37	177.92
343.15 K, x1 = 1	983.63	316.66
348.15 K, x1 = 0.128	950.66	1.58
348.15 K, x1 = 0.255	965	4.13
348.15 K, x1 = 0.339	968.9	7.4
348.15 K, x1 = 0.445	973.05	15.01
348.15 K, x1 = 0.578	976.36	34.18
348.15 K, x1 = 0.755	979.11	68.04
348.15 K, x1 = 0.865	979.56	138.26
348.15 K, x1 = 1	980.88	237.14
353.15 K, x1 = 0.128	946.27	1.48
353.15 K, x1 = 0.255	961.31	3.76
353.15 K, x1 = 0.339	965.27	6.63
353.15 K, x1 = 0.445	969.48	13.03
353.15 K, x1 = 0.578	973.29	28.74
353.15 K, x1 = 0.755	976.18	55.2
353.15 K, x1 = 0.865	976.69	108.95
353.15 K, x1 = 1	978.13	181.41

CCCCCCCC[n+]1ccn(C)c1.[Cl-] [1-methyl-3-octylimidazolium chloride] + CN(C)C=O
Conditions	mass density [kg/m3]	viscosity [mPa·s]
303.15 K, x1 = 0.119	965.57	2.56
303.15 K, x1 = 0.241	979.1	8.9
303.15 K, x1 = 0.321	985.99	18.99
303.15 K, x1 = 0.424	992	49.08
303.15 K, x1 = 0.557	996.35	160.48
303.15 K, x1 = 0.739	1002.01	766.79
303.15 K, x1 = 0.858	1004.31	1892.8
303.15 K, x1 = 1	1006.2	7339.7
308.15 K, x1 = 0.119	961.27	2.32
308.15 K, x1 = 0.241	975.4	7.69
308.15 K, x1 = 0.321	982.47	15.91
308.15 K, x1 = 0.424	988.63	39.48
308.15 K, x1 = 0.557	993.19	122.67
308.15 K, x1 = 0.739	998.95	536.62
308.15 K, x1 = 0.858	1001.36	1258
308.15 K, x1 = 1	1003.33	4272.9
313.15 K, x1 = 0.119	957.31	2.13
313.15 K, x1 = 0.241	971.7	6.75
313.15 K, x1 = 0.321	979.05	13.51
313.15 K, x1 = 0.424	985.26	32.2
313.15 K, x1 = 0.557	989.93	95.06
313.15 K, x1 = 0.739	995.95	381.17
313.15 K, x1 = 0.858	998.42	856.69
313.15 K, x1 = 1	1000.48	2766.9
318.15 K, x1 = 0.119	953.45	1.95
318.15 K, x1 = 0.241	967.99	5.96
318.15 K, x1 = 0.321	975.72	11.56
318.15 K, x1 = 0.424	981.9	26.5
318.15 K, x1 = 0.557	986.82	74.18
318.15 K, x1 = 0.739	992.97	277.21
318.15 K, x1 = 0.858	995.47	596.05
318.15 K, x1 = 1	997.64	1788.6
323.15 K, x1 = 0.119	949.36	1.81
323.15 K, x1 = 0.241	964.31	5.29
323.15 K, x1 = 0.321	972.37	10
323.15 K, x1 = 0.424	978.56	22.11
323.15 K, x1 = 0.557	983.92	59.06
323.15 K, x1 = 0.739	990	206.44
323.15 K, x1 = 0.858	992.57	426.48
323.15 K, x1 = 1	994.82	1198.7
328.15 K, x1 = 0.119	945.25	1.67
328.15 K, x1 = 0.241	960.61	4.75
328.15 K, x1 = 0.321	969.03	8.72
328.15 K, x1 = 0.424	975.22	18.67
328.15 K, x1 = 0.557	980.8	47.65
328.15 K, x1 = 0.739	987.03	156.59
328.15 K, x1 = 0.858	989.7	312.38
328.15 K, x1 = 1	992	828.3
333.15 K, x1 = 0.119	941.11	1.56
333.15 K, x1 = 0.241	956.95	4.25
333.15 K, x1 = 0.321	965.62	7.67
333.15 K, x1 = 0.424	971.88	15.92
333.15 K, x1 = 0.557	977.65	38.97
333.15 K, x1 = 0.739	984.05	120.9
333.15 K, x1 = 0.858	986.83	233.56
333.15 K, x1 = 1	989.17	588.69
338.15 K, x1 = 0.119	936.97	1.45
338.15 K, x1 = 0.241	953.32	3.85
338.15 K, x1 = 0.321	962.16	6.79
338.15 K, x1 = 0.424	968.56	13.71
338.15 K, x1 = 0.557	974.48	32.38
338.15 K, x1 = 0.739	981.09	94.93
338.15 K, x1 = 0.858	983.97	176.82
338.15 K, x1 = 1	986.38	426.28
343.15 K, x1 = 0.119	932.83	1.36
343.15 K, x1 = 0.241	949.69	3.5
343.15 K, x1 = 0.321	958.67	6.06
343.15 K, x1 = 0.424	965.24	11.91
343.15 K, x1 = 0.557	971.56	27.13
343.15 K, x1 = 0.739	978.13	75.65
343.15 K, x1 = 0.858	981.1	137.16
343.15 K, x1 = 1	983.63	316.66
348.15 K, x1 = 0.119	928.69	1.27
348.15 K, x1 = 0.241	946.02	3.2
348.15 K, x1 = 0.321	955.18	5.43
348.15 K, x1 = 0.424	961.92	10.41
348.15 K, x1 = 0.557	968.34	22.93
348.15 K, x1 = 0.739	975.19	61.29
348.15 K, x1 = 0.858	978.24	108.17
348.15 K, x1 = 1	980.88	237.14
353.15 K, x1 = 0.119	924.55	1.2
353.15 K, x1 = 0.241	942.33	2.93
353.15 K, x1 = 0.321	951.69	4.9
353.15 K, x1 = 0.424	958.62	9.16
353.15 K, x1 = 0.557	965.07	19.6
353.15 K, x1 = 0.739	972.25	50.08
353.15 K, x1 = 0.858	975.39	86.03
353.15 K, x1 = 1	978.13	181.41
